According to patent US20160000938A1, “REAGENT FOR DIAGNOSIS OF OSTEOARTHRITIS COMPRISING PEPTIDE PROBE OF APOPEP-1” (priority 2013, published 2016):
Entries after “also recorded” stand apart in the source; their conditions may differ.

Experiments:
[1] = system: apoptotic chondrocytes of DMM-operated articular cartilage; assay: In situ immunofluorescence staining and TUNEL assay of OA cartilage cryo-sections; design: species or system mice
Protocol: Hind limbs of mice were fixed with 4% paraformaldehyde in 0.1 M phosphate-buffered saline (PBS, pH 7.4) for 12 hours, and decalcified with 10% ethylene-diamine tetraacetic acid (EDTA, pH 7.4) for 3 weeks. Decalcified tissues were dipped in 20% sucrose/PBS solution overnight and embedded in OCT compound (Tissue-Tek) for making the frozen samples. Frozen samples were cut at 10 μm thickness from femur to tibia range for joint visible. Cut slices from each animal were selected for the staining with same primary antibodies to comparison at the same area of joint articular cartilage. The section was treated with a blocking solution (0.1% tween-20, 1% bovine serum albumin (BSA), 5% normal donkey serum in PBS) after washing with PBS, and then incubated at 4° C. 1 h with the primary antibodies such as rabbit polyclonal collagen 2 antibody (1:200; abcam, MA, USA), mouse monoclonal MMP-13 antibody (1:200; abcam, MA, USA). After PBS rinses, the sections were incubated with Alexa-594 or Alexa-488-conjugated secondary antibody for 30 min. Thereafter, the sections were incubated with 4′,6′-diamidino-2-phenylindole (DAPI, Sigma-Aldrich, St Louis, Mo., USA) for nuclear staining then mounted with a ProLong® Antifade Kit (Invitrogen, USA). […]

[2] = system: arthritic joints of DMM mice; assay: Ex vivo optical imaging of extracted hind limbs of DMM mice; format: in vivo, C57BL/6N mice
Protocol: (§1) Male mice at 12 weeks of age were divided into three groups: Sham-ApoPep-1, OA-Control Peptide and OA-ApoPep-1 group (n=4-8/group). For OA model, we performed DMM surgery as described in previous studies (8, 23).
(§2) FlammaTM675-ApoPep-1 was intravenously (i.v.) injected from the tail vain (1 mM 100 μl/20 g) and allowed to circulate for the indicated time periods. In vivo optical imaging was conducted by scanning the mice under anesthesia by inhalation of isofluran (jw pharmaceutical, South Korea) in 80% N2O/20% O2 using Optix Explore (ART, Montreal, Canada). The excitation/emission wavelengths for FlammaTM675 were 676 nm/704 nm. Ex vivo optical imaging was performed with extracted hind limbs by the same method. FlammaTM675-NSSSVDK was used as the control peptide (18).

[3] = system: arthritic joints of DMM mice; assay: In vivo optical imaging of fluorescence-labeled ApoPep-1 probe in DMM OA mice; design: species or system C57BL/6N mice; conditions: for OARSI grade of OA at which the probe detects OA / apoptotic chondrocytes: DMM model
Protocol: as §1, §2

[4] = system: ATDC5 chondrocyte cell treated with staurosporine; assay: In vitro binding to apoptotic chondrocytes (immunocytochemistry); format: cell-based; conditions: fluorescence staining; for binding to apoptotic cells: chondrocytes treated with staurosporine; for binding to live cells: live chondrocytes
Protocol: ATDC5 chondrocyte cell was maintained in a mixture of DMEM and Ham's F-12 (DMEM/F12) medium (Lonza, USA) containing 5% fetal bovine serum (FBS) (Gibco-BRL, USA), 10 ug/ml of human transferrin (Sigma) and 3×10^-8 M of sodium selenite (Sigma) and penicillin/streptomycin. Apoptosis was induced by incubating cells with 0.5 uM Staurosporine (cell signaling, USA) for the indicated time periods. Apoptotic stages were determined by staining the cells with annexin V and ApoPep-1 conjugated with flamma 675. For immunocytochemistry staining, cells were incubated with 1% bovine serum albumin at 37° C. for 30 min for blocking and then binding with 10 μM flamma 675-conjugated peptide at 4° C. for 1 h. Cells were then costained with Alexa-594-annexin V (Invitrogen, Carlsbad, Calif., USA) for 15 min at room temperature in binding buffer (10 mM HEPES, pH 7.4, 140 mM NaCl, and 2.5 mM CaCl2). After fixation, cells were incubated with DAPI for nuclear staining and mounted with a ProLong® Antifade Kit.

| Substance | correlation of TUNEL staining with ApoPep-1 signals ([1]; DMM models 2 weeks after surgery) | localisation of ApoPep-1 relative to type II collagen and MMP13 ([1]; DMM-operated articular cartilage, 2 weeks after surgery) | ApoPep-1 fluorescent signal from arthritic joints ([2]; 4 weeks after DMM operation) | ApoPep-1 fluorescent signal from arthritic joints compared with sham-ApoPep-1 and OA-control-Peptide groups ([2]; two weeks after DMM operation) | time after DMM operation at which the probe can detect apoptotic change ([3]; DMM OA model) | OARSI grade of OA at which the probe detects OA / apoptotic chondrocytes [3] | OARSI grade of OA at which the probe detects OA / apoptotic chondrocytes ([3]; listed as ApoPep1) | ApoPep-1 fluorescent signal from arthritic joints compared with 4 weeks ([3]; i.v. injection, 8 weeks after DMM operation) | optimal time point for diagnosis after injection ([3]; i.v. injection, DMM mice) | time after injection after which ApoPep-1 binding is undetectable ([3]; i.v. injection, DMM mice) | time after injection of maximal ApoPep-1 binding ([3]; i.v. injection, DMM mice) | fluorescent signal time course after probe injection ([3]; images from 30 minutes to 24 hours after i.v. administration, DMM mice) | ApoPep-1 fluorescent signal from arthritic joints ([3]; in vivo, i.v. injection, 4 weeks after DMM operation) | ApoPep-1 fluorescent signal from arthritic joints compared with sham-ApoPep-1 and OA-control-Peptide groups ([3]; in vivo, i.v. injection, one week after DMM operation) | ApoPep-1 fluorescent signal from arthritic joints compared with sham-ApoPep-1 and OA-control-Peptide groups ([3]; in vivo, i.v. injection, two weeks after DMM operation) | binding to apoptotic cells [4] | binding to live cells [4] |
| --- | --- | --- | --- | --- | --- | --- | --- | --- | --- | --- | --- | --- | --- | --- | --- | --- | --- |
| CQRPPR [ApoPep-1] | strongly correlated | detected where type II collagen decreased and MMP13 increased | maximal | significant increase | 2 weeks | grade I OA; also recorded: Grades I | Grade II | reduced | 30 min | 8 h | 30 min | clearly detectable from arthritic joint sat 30 minutes after the probe injection and decreased according to time course | maximal | no significant difference | detected strongly; also recorded: significant increase | bind to apoptotic cells | not to live cells |
| annexin V: a 36 kDa protein that binds to phosphatidylserine, early marker of apoptotic cell death [reference compound] | – | – | – | – | – | – | – | – | – | – | – | – | – | – | – | bind to apoptotic cells | not to live cells |
